Experimental data taken from article PMC5913406 (British Journal of Pharmacology, 2018).

Experiments:
A1 receptor = details: 25°C; ref Guo et al., 2013; cited from earlier work
[1] = biological target: T1, human adenosine A1 receptor (Homo sapiens, UniProt P30542); assay: Two‐state competition association assay with [^3H]‐NECA; format: binding
T1 sequence (P30542 1-326): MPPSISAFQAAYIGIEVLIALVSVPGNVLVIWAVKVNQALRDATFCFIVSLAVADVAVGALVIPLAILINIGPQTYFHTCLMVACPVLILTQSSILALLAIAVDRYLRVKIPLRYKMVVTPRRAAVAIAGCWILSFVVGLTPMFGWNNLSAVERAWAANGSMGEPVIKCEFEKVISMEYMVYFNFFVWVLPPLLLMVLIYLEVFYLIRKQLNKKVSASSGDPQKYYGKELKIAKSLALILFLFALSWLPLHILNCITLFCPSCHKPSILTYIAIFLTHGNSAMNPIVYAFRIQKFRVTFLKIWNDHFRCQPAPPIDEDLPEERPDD

[2] = biological target: T1, human adenosine A1 receptor; assay: Competition binding assay: displacement of [^3H]‐NECA on CHOhA1R cell membranes

k6 (dissociation rate constant of competitor at R1 state) ([1]; two‐state model, 30°C, mean ± SEM of five experiments) [min⁻¹]	IC50 [2] [nM]	Kb ([1]; KB,2, KB,2 = k8/k7, R2 state, 30°C, DPCPX and LUF5962 values ambiguous) [nM]	kon ([1]; read-out: k5 (association rate constant of competitor at R1 state)) [M⁻¹ s⁻¹]	koff ([1]; read-out: k6 (dissociation rate constant of competitor at R1 state)) [s⁻¹]	Compound	association rate (A1 receptor) [M⁻¹ s⁻¹]
0.78 ± 1.42					CCCn1c(=O)c2[nH]c(C3CCCC3)nc2n(CCC)c1=O [DPCPX, 1,3‐dipropyl‐8‐cyclopentylxanthine]	3.33e+06
	74.1	15	167000	0.00383	c1ccc(-c2nc(-c3ccccc3)c3nc(C4CCCC4)[nH]c3n2)cc1 [LUF5962, 8‐cyclopentyl‐2,6‐diphenyl‐9H‐purine]	2e+06
